System: ddY-strain male mice
Assay: Acute Toxicity Test (minimum lethal dose, oral)
Format: in vivo
Conditions: seven days after administration
Procedure: Test compounds were orally administered to groups of ddY-strain male mice weighing 20±1 g, each group consisting of three mice. Seven days after the administration, minimum lethal dose (MLD) of each compound was determined by observing the mortality.

Compound | MLD (minimum lethal dose) [mg/kg]
CCCOc1ccc(/C=C/c2nc3c(c(=O)n(CCC)c(=O)n3CCC)n2C)cc1 [Compound 51, (E)-7-Methyl-8-(4-propoxystyryl)-1,3-dipropylxanthine] | > 300
CCCn1c(=O)c2c(nc(/C=C/c3ccc(OC)c(OC)c3)n2CC)n(CCC)c1=O [Compound 66, (E)-8-(3,4-Dimethoxystyryl)-7-ethyl-1,3-dipropylxanthine] | > 300
CCCn1c(=O)c2nc(/C=C/c3cc(OC)c(OC)c(OC)c3)[nH]c2n(CCC)c1=O [Compound 10, (E)-1,3-dipropyl-8-(3,4,5-trimethoxystyryl)xanthine] | > 300
CCn1c(=O)c2[nH]c(/C=C/c3cccc(F)c3)nc2n(CC)c1=O [Compound 127, (E)-1,3-Diethyl-8-(3-fluorostyryl)xanthine] | > 100
CCn1c(=O)c2[nH]c(/C=C/c3ccc(F)c(F)c3)nc2n(CC)c1=O [Compound 111, (E)-8-(3,4-Difluorostyryl)-1,3-diethylxanthine] | > 300
CCCn1c(=O)c2c(nc(/C=C/c3cc(OC)c(OC)cc3OC)n2C)n(CCC)c1=O [Compound 24, (E)-7-Methyl-1,3-dipropyl-8-(2,4,5-trimethoxystyryl)xanthine] | > 300
COc1cc(C)c(/C=C/c2nc3c(c(=O)n(C)c(=O)n3C)n2C)cc1C [Compound 102, (E)-8-(4-Methoxy-2,5-dimethylstyryl)caffeine] | > 100
CCCn1c(=O)c2nc(/C=C/c3cc(OC)cc(OC)c3)[nH]c2n(CCC)c1=O [Compound 33, (E)-8-(3,5-Dimethoxystyryl)-1,3-dipropylxanthine] | > 100
COc1ccc(/C=C/c2nc3c(=O)n(C)c(=O)n(C)c3[nH]2)c(OC)c1OC [Compound 91, (E)-8-(2,3,4-Trimethoxystyryl)theophylline] | > 300
CCn1c(=O)c2[nH]c(/C=C/c3ccc(OC)c(Br)c3)nc2n(CC)c1=O [Compound 113, (E)-8-(3-Bromo-4-methoxystyryl)-1,3-diethylxanthine] | > 100
CCCn1c(=O)c2[nH]c(/C=C/c3ccc(OC)c(C)c3C)nc2n(CCC)c1=O [Compound 13, (E)-8-(4-Methoxy-2,3-dimethylstyryl)-1,3-dipropylxanthine] | > 300
CCn1c(=O)c2c(nc(/C=C/c3ccc(OC)c(OC)c3Cl)n2C)n(CC)c1=O [Compound 106, (E)-8-(2-Chloro-3,4-dimethoxystyryl)-1,3-diethyl-7-methylxanthine] | > 300
CCCn1c(=O)c2c(nc(/C=C/c3ccc(OC)c4ccccc34)n2C)n(CCC)c1=O [Compound 63, (E)-8-[2-(4-Methoxynaphthyl)vinyl]-7-methyl-1,3-dipropylxanthine] | > 300
CCCn1c(=O)c2c(nc(/C=C/c3cc(OC)c(OC)cc3Br)n2C)n(CCC)c1=O [Compound 59, (E)-8-(2-Bromo-4,5-dimethoxystyryl)-7-methyl-1,3-dipropylxanthine] | > 300
CCn1c(=O)c2[nH]c(/C(C)=C/c3ccccc3)nc2n(CC)c1=O [Compound 133, (E)-1,3-Diethyl-8-(α-methylstyryl)xanthine] | > 100
CCn1c(=O)c2c(nc(/C=C/c3ccc(OCOC)cc3)n2C)n(CC)c1=O [Compound 146, (E)-1,3-Diethyl-8-(4-methoxymethoxystyryl)-7-methylxanthine] | > 100
CCn1c(=O)c2c(nc(/C=C/c3ccc(OC)c(C)c3OC)n2C)n(CC)c1=O [Compound 86, (E)-8-(2,4-Dimethoxy-3-methylstyryl)-1,3-diethyl-7-methylxanthine] | > 300
CCn1c(=O)c2[nH]c(/C=C/c3cc(C(F)(F)F)cc(C(F)(F)F)c3)nc2n(CC)c1=O [Compound 153, (E)-8-[3,5-Bis(trifluoromethyl)styryl]-1,3-diethylxanthine] | > 100
CCn1c(=O)c2c(nc(/C=C/c3cccc(Cl)c3)n2C)n(CC)c1=O [Compound 132, (E)-8-(3-Chlorostyryl)-1,3-diethyl-7-methylxanthine] | > 300
Cn1c(=O)c2[nH]c(/C=C/c3ccc4c(c3)OCO4)nc2n(C)c1=O [Compound 95, (E)-8-(3,4-Methylenedioxystyryl)theophylline] | > 300
CCn1c(=O)c2[nH]c(/C=C/c3ccc(C)cc3)nc2n(CC)c1=O [Compound 151, (E)-1,3-Diethyl-8-(4-methylstyryl)xanthine] | > 100
CCCn1c(=O)c2c(nc(/C=C/c3ccc(OC)c(OC)c3)n2C)n(CCC)c1=S [Compound 72, (E)-8-(3,4-Dimethoxystyryl)-7-methyl-1,3-dipropyl-2-thioxanthine] | > 300
CCn1c(=O)c2c(nc(/C=C/c3ccc(OC)c(O)c3)n2C)n(CC)c1=O [Compound 183, (E)-1,3-Diethyl-8-(3-hydroxy-4-methoxystyryl)-7-methylxanthine] | > 100

Compound | MLD (minimum lethal dose) [mg/kg]
CCCOc1ccc(/C=C/c2nc3c([nH]2)c(=O)n(CCC)c(=O)n3CCC)cc1 [Compound 50, (E)-8-(4-Propoxystyryl)-1,3-dipropylxanthine] | > 100
CCCn1c(=O)c2c(nc(/C=C/c3ccc(OCOC)c(OCOC)c3)n2C)n(CCC)c1=O [Compound 68, (E)-8-[3,4-Bis(methoxymethoxy)styryl]-7-methyl-1,3-dipropylxanthine] | > 100
CCCn1c(=O)c2[nH]c(/C=C/c3ccc4c(c3)OCO4)nc2n(CCC)c1=O [Compound 19, (E)-8-(3,4-Methylenedioxystyryl)-1,3-dipropylxanthine] | > 300
CCn1c(=O)c2[nH]c(/C=C/c3ccc(O)cc3)nc2n(CC)c1=O [Compound 193, (E)-1,3-Diethyl-8-(4-hydroxystyryl)xanthine] | > 100
CCn1c(=O)c2c(nc(/C=C/c3ccc(-c4ccccc4)cc3)n2C)n(CC)c1=O [Compound 171, (E)-1,3-Diethyl-7-methyl-8-(4-phenylstyryl)xanthine] | > 100
CCn1c(=O)c2[nH]c(/C=C/c3ccc(OC)c(C)c3)nc2n(CC)c1=O [Compound 174, (E)-1,3-Diethyl-8-(4-methoxy-3-methylstyryl)xanthine] | > 100
CCn1c(=O)c2c(nc(/C=C/c3cccc(OC)c3)n2C)n(CC)c1=O [Compound 140, (E)-1,3-Diethyl-8-(3-methoxystyryl)-7-methylxanthine] | > 300
CCCCn1c(=O)c2nc(/C=C/c3cc(OC)c(OC)c(OC)c3)[nH]c2n(CCCC)c1=O [Compound 8, (E)-1,3-Dibutyl-8-(3,4,5-trimethoxystyryl)xanthine] | > 100
CCn1c(=O)c2c(nc(/C=C/c3ccc(OCC(=O)O)cc3)n2C)n(CC)c1=O [Compound 190, (E)-8-(4-Carboxymethoxystyryl)-1,3-diethyl-7-methylxanthine] | > 100
CCn1c(=O)c2[nH]c(/C=C/c3ccccc3OC)nc2n(CC)c1=O [Compound 157, (E)-1,3-Diethyl-8-(2-methoxystyryl)xanthine] | > 100
CCn1c(=O)c2c(nc(/C=C/c3ccc(OCCCCN=[N+]=[N-])cc3)n2C)n(CC)c1=O [Compound 187, (E)-8-[4-(4-Azidobutoxy)styryl]-1,3-diethyl-7-methylxanthine] | > 100
CCCn1c(=O)c2[nH]c(/C=C/c3cccc([N+](=O)[O-])c3)nc2n(CCC)c1=O [Compound 35, (E)-8-(3-Nitrostyryl)-1,3-dipropylxanthine] | > 100
COc1ccc(/C=C/c2nc3c([nH]2)c(=O)n(C)c(=O)n3C)cc1Br [Compound 115, (E)-8-(3-Bromo-4-methoxystyryl)theophylline] | > 100
CCn1c(=O)c2[nH]c(/C=C/c3ccc(OC)c(OC)c3OC)nc2n(CC)c1=O [Compound 79, (E)-1,3-Diethyl-8-(2,3,4-trimethoxystyryl)xanthine] | > 300
CCn1c(=O)c2[nH]c(/C=C/c3cccc(C(F)(F)F)c3)nc2n(CC)c1=O [Compound 163, (E)-1,3-Diethyl-8-(3-trifluoromethylstyryl)xanthine] | > 100
CCn1c(=O)c2[nH]c(/C=C/c3cccc(OC)c3)nc2n(CC)c1=O [Compound 139, (E)-1,3-Diethyl-8-(3-methoxystyryl)xanthine] | > 100
CCCn1c(=O)c2nc(/C=C/c3cc(OC)c(OC)cc3OC)[nH]c2n(CCC)c1=O [Compound 23, (E)-1,3-Dipropyl-8-(2,4,5-trimethoxystyryl)xanthine] | > 300
CCCn1c(=O)c2c(nc(/C=C/c3ccc(OC)c(C)c3OC)n2C)n(CCC)c1=O [Compound 16, (E)-8-(2,4-Dimethoxy-3-methylstyryl)-7-methyl-1,3-dipropylxanthine] | > 300
CCn1c(=O)c2[nH]c(/C=C/c3ccc(F)c(Cl)c3)nc2n(CC)c1=O [Compound 176, (E)-8-(3-Chloro-4-fluorostyryl)-1,3-diethylxanthine] | > 100
CCn1c(=O)c2[nH]c(/C=C/c3cc(OC)c(OC)cc3[N+](=O)[O-])nc2n(CC)c1=O [Compound 119, (E)-8-(4,5-Dimethoxy-2-nitrostyryl)-1,3-diethylxanthine] | > 100
CCCn1c(=O)c2c(nc(/C=C\c3ccc(OC)c(OC)c3)n2C)n(CCC)c1=O [Compound 65, (Z)-8-(3,4-Dimethoxystyryl)-7-methyl-1,3-dipropylxanthine] | > 300
CCn1c(=O)c2[nH]c(/C=C/c3cc(C)ccc3C)nc2n(CC)c1=O [Compound 109, (E)-8-(2,5-Dimethylstyryl)-1,3-diethylxanthine] | > 300
